Legend:
Solubility in solvents = format: physicochemical
Candida albicans FP633 = assay: Antimicrobial activity, serial broth dilution method (MEC); format: cell-based; settings: yeast nitrogen base dextrose medium, 37° C., 24 hours, microscopic observation
Procedure: (§1) Test 1 (Antimicrobial Activity) Antimicrobial activity of WF002 was determined by a serial broth dilution method using 96-well microtiter plate in 100 μl of yeast nitrogen base dextrose medium. The inoculum was adjusted to 1×10^5 colony forming units/ml. Candida albicans and Aspergillus fumigatus were cultured at 37° C. for 24 hours and Cryptococcus neoformans was cultured at 37° C. for 48 hours in 5% CO2 incubator. After incubation, the growth inhibition of microorganism in each well was determined by microscopic observation. The results were shown as MEC (minimum effective concentration: μg/ml) value (Table 2).

[1] = test system: Cryptococcus neoformans YC203; assay: as above; format: cell-based; settings: yeast nitrogen base dextrose medium, 37° C., 48 hours, 5% CO2, microscopic observation
Procedure: as §1

[2] = test system: Aspergillus fumigatus FP1305; assay: as above; format: cell-based; settings: yeast nitrogen base dextrose medium, 37° C., 24 hours, microscopic observation
Procedure: as §1

## CC(=O)OC1CC2(C)C(CCC3(C)C2CCC2=C4C(=O)CC5C(C)COC(O)C45CCC23C)C(C)(C)C1OC1OC(CO)C(O)C(O)C1O (centres unmarked) [WF002]
Solubility in solvents; methanol, ethyl acetate, dimethylsulfoxide
  Solubility: Soluble
Solubility in solvents; water, n-hexane
  Solubility: Insoluble
Candida albicans FP633
  MEC (minimum effective concentration): 6.25 µg/mL
[1]
  MEC (minimum effective concentration): 50 µg/mL
[2]
  MEC (minimum effective concentration): 0.04 µg/mL

Reference: US6521600B1, “Compound, WF002, production thereof and use thereof” (Fujisawa Pharmaceutical Co., Ltd., priority 1998, dated 2003)
